Test results from ChEMBL document CHEMBL1201862, “PubChem BioAssay data set” (2004).
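Values below derive from 48-hour exposures of cells grown in 96-well plates, with endpoints linearly interpolated between the two concentrations bracketing the appropriate inhibition level. GI50 = concentration required for 50% inhibition of growth.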 Active and inactive are the calls of the source. No stated cut-off is given here; in the data, active = GI50 up to about 1.1 µM and inactive = higher.

What was measured:
Test in all cases: inhibition of tumour cell growth, NCI panel, 48 h
[1] = test system: 786-0
[2] = test system: EKVX
[3] = test system: HCC 2998
[4] = test system: HCT-15
[5] = test system: HOP-92
[6] = test system: LXFL 529
[7] = test system: M14
[8] = test system: MOLT-4
[9] = test system: NCI-H226
[10] = test system: NCI-H23
[11] = test system: NCI-H460
[12] = test system: OVCAR-3
[13] = test system: RXF 393
[14] = test system: SF-268
[15] = test system: SK-OV-3
[16] = test system: SW-620
[17] = test system: UACC-257
[18] = test system: DU-145
[19] = test system: MCF7
[20] = test system: MDA-MB-231

Measured: GI50

CS(=O)(=O)ON1C(=O)c2ccc(N)cc2C1=O
inactive: [1] > 100 µM | [2] > 100 µM | [3] > 100 µM | [5] > 100 µM | [6] > 78.5 µM | [7] > 87.3 µM | [8] 21.4 µM | [9] > 100 µM | [10] > 100 µM | [11] > 100 µM | [12] > 100 µM | [13] > 40.9 µM | [14] > 50.6 µM | [15] > 100 µM | [16] 52.1 µM | [17] > 31.6 µM
71.4 µM: [4]

O=C1C=CC2(C=C1)CCNC1=C2C(=O)c2ccccc2C1=O
inactive: [1] > 100 µM | [2] > 100 µM | [3] > 100 µM | [5] > 100 µM | [6] > 100 µM | [7] > 100 µM | [8] > 100 µM | [9] > 100 µM | [10] > 100 µM | [11] > 100 µM | [12] 28.5 µM | [13] > 100 µM | [14] > 100 µM | [15] > 100 µM | [16] > 100 µM | [17] 50 µM
> 100 µM: [4]

CN(CCO)c1nc(=O)c2c(n1C1OC(CO)C(O)C(O)C1O)CCCC2 (configuration not stated)
> 100 µM: [4]
inactive: [1] > 100 µM | [2] > 100 µM | [3] > 100 µM | [5] > 100 µM | [6] > 100 µM | [7] > 100 µM | [8] > 100 µM | [9] > 100 µM | [10] > 100 µM | [11] > 100 µM | [12] > 100 µM | [13] > 100 µM | [14] > 100 µM | [15] > 100 µM | [16] > 100 µM | [17] > 100 µM

O=C1c2ccccc2C(=O)c2c(/C=C\N3CCCCC3)ccnc21
active: [6] 0.377 µM | [7] 0.578 µM | [19] 0.869 µM | [10] 0.644 µM | [16] 0.839 µM | [17] 1.02 µM
inactive: [1] 6.35 µM | [18] 1.44 µM | [2] 15.2 µM | [3] 2.72 µM | [5] 9.18 µM | [20] 19.1 µM | [8] 6.84 µM | [9] 2.7 µM | [11] 1.3 µM | [12] 1.75 µM | [13] 8.53 µM | [14] 12 µM | [15] 15.7 µM
0.582 µM: [4]

O=C(N/C=C/C=C/Sc1ccccc1)OCc1ccccc1
inactive: [1] 16.9 µM | [2] 24.8 µM | [3] 20.1 µM | [5] 23.2 µM | [6] 17.1 µM | [7] 18.5 µM | [8] 15.4 µM | [9] 19.9 µM | [10] 22.7 µM | [11] 21.7 µM | [12] 17.3 µM | [13] 20.1 µM | [14] 17.5 µM | [15] 33.8 µM | [16] 17.7 µM | [17] 18.7 µM
18.1 µM: [4]

CCN(CC)CCOC(c1ccccc1)c1ccccc1.CCOC(=O)Nc1ccc(S(=O)(=O)NCCCl)cc1.CCOC(=O)Nc1ccc(S(=O)(=O)NCCCl)cc1.Nc1ccc(C(=O)O)c(O)c1
> 100 µM: [4]
inactive: [1] > 100 µM | [2] > 100 µM | [3] > 100 µM | [5] > 100 µM | [6] > 100 µM | [7] > 100 µM | [8] > 100 µM | [9] > 100 µM | [10] > 100 µM | [11] > 100 µM | [12] > 100 µM | [13] > 100 µM | [14] > 100 µM | [15] > 100 µM | [16] > 100 µM | [17] > 100 µM

Cc1oc2c(C)c3oc(=O)cc(C)c3cc2c1CNC(=O)[C@@H]1OCCOCCOCCOCCOCCOC1C(=O)O (some centres not stated)
inactive: [1] 21.2 µM | [2] > 100 µM | [3] > 100 µM | [5] > 100 µM | [6] 8.15 µM | [7] 12.5 µM | [8] > 100 µM | [9] > 100 µM | [10] > 100 µM | [11] > 100 µM | [12] > 100 µM | [13] > 100 µM | [14] > 100 µM | [15] > 100 µM | [16] > 100 µM | [17] > 100 µM
> 100 µM: [4]

NC(=O)c1nnn(Cc2cc(Cl)c(C(=O)c3ccc(Cl)cc3)c(Cl)c2)c1N [CARBOXYAMIDOTRIAZOLE]
12.7 µM: [4]
inactive: [1] 27.9 µM | [18] 19.2 µM | [2] 16.8 µM | [3] > 9.1 µM | [5] 32 µM | [6] > 9.1 µM | [7] 19.6 µM | [19] 11.4 µM | [20] > 36.2 µM | [8] 25.9 µM | [9] 33 µM | [10] 11.8 µM | [11] 14.8 µM | [12] 12.3 µM | [13] 23.7 µM | [14] 13 µM | [15] > 38.5 µM | [16] 27.1 µM | [17] 7.98 µM
